These results are taken from US20090297478A1, “Methods and Compositions for the Treatment of Lupus Using Clofarabine” (priority 2002, published 2009).

Data set [1] in a line: maximum tolerated dose of clofarabine. The data set is classed as in vivo. Particulars: species and route not given. As to the method:
It may be necessary to use dosages of the active ingredient outside the ranges disclosed herein in some cases, as will be apparent to those of ordinary skill in the art, but the dosage should not fall below 0.01 mg/kg/day. The maximum tolerated doses of clofarabine is approximately 80 mg/kg per day. Furthermore, it is noted that the clinician or treating physician will know how and when to interrupt, adjust, or terminate therapy in conjunction with individual patient response.

Data set [2] in a line: degradation of the drug during dissolution, lyophilization and drying (parenteral formulation). The data set is classed as physicochemical. Particulars: dissolved in 1:1 tertiary butanol/Water for Injection at 5° C., lyophilized at −16° C. for 48 hours, dried at 15° C. under high vacuum for 48 hours, protected from light. As to the method:
Clofarabine, 9.86 g, is wetted/partially dissolved with 600 mL of a 9:1 mixture of tertiary butanol and Water for Injection USP which is pre-cooled to 5° C. Once the drug powder is completely wetted, dissolution is completed by the addition of 600 mL of a 1:9 mixture of tertiary butanol and Water for Injection and 766 mL of a 1:1 mixture of tertiary butanol and Water for Injection which likewise is pre-cooled to 5° C. thereby making the final solution a 1:1 mixture. The dissolution is carried out under protection from light.
The solution formed above is promptly lyophilized in a Virtis INOTOP lyophilizer at −16° C. under light protectant conditions over a period of 48 hours. The resultant lyophilized product (lyophile) is then further dried at 15° C. under high vacuum for 48 hours. […] The lyophile is packaged under sterile conditions into 30 mL vials, each containing 50 mg of drug, 50 mg of mannitol and sodium hydroxide to adjust the pH to 7.7 and standard excess to allow for vial/needle/syringe loss.

For `Nc1nc(Cl)nc2c1ncn2[C@@H]1O[C@H](CO)[C@@H](O)[C@@H]1F` [Clofarabine, 2-Chloro-9-(2-deoxy-2-fluoro-β-D-arabinofuranosyl)adenine], the maximum tolerated dose entry in data set [1] is “approximately 80 mg/kg per day”. For the same molecule, in data set [2], the “degradation of the drug” value was “No detectable degradation”.
